Patent US7495018B2, “Substituted 1,3-thiazole compounds, their production and use” (Takeda Pharmaceutical Company Limited, priority 2000, dated 2009)

SMILES	melting point
Nc1nc(-c2cccc(Cl)c2)c(-c2ccnc(N3CCCCC3)c2)s1 [Example Compound 35-1, [4-(3-chlorophenyl)-5-(2-piperidino-4-pyridyl)-1,3-thiazol-2-yl]amine]	206 to 208 °C
Cc1cccc(-c2nc(-c3ccc(S(C)(=O)=O)cc3)sc2N2C=CC=CC2N2CCCCC2)c1 (stereo not drawn) [Example Compound 35-2, 4-(3-methylphenyl)-2-(4-methylsulfonylphenyl)-5-(2-piperidino-1-pyridyl)-1,3-thiazole]	155 to 157 °C
Nc1nc(-c2ccc(F)cc2)c(-c2ccnc(NC3CCCCC3)c2)s1 [Example Compound 36-1, [5-(2-cyclohexylamino-4-pyridyl)-4-(4-fluorophenyl)-1,3-thiazol-2-yl]amine]	194 to 195 °C
CNc1nc(-c2cccc(C)c2)c(-c2ccnc(NC3CCCCC3)c2)s1 [Example Compound 36-2, N-methyl-[5-(2-cyclohexylamino-4-pyridyl)-4-(3-methylphenyl)-1,3-thiazol-2-yl]amine]	211 to 212 °C
CNc1nc(-c2cccc(C)c2)c(-c2ccnc(NC3CCCC3)c2)s1 [Example Compound 36-3, N-methyl-[5-(2-cyclopentylamino-4-pyridyl)-4-(3-methylphenyl)-1,3-thiazol-2-yl]amine]	170 to 172 °C
CCc1nc(-c2cccc(C)c2)c(-c2ccnc(NC3CCCCC3)c2)s1 [Example Compound 36-4, N-cyclohexyl-4-[2-ethyl-4-(3-methylphenyl)-1,3-thiazol-5-yl]-2-pyridylamine]	110 to 112 °C
Cc1cccc(-c2nc(-c3ccc(S(C)(=O)=O)cc3)sc2-c2ccnc(NC3CCCCC3)c2)c1 [Example Compound 36-5, N-cyclohexyl-4-[4-(3-methylphenyl)-2-(4-methylsulfonylphenyl)-1,3-thiazol-5-yl]-2-pyridylamine]	197 to 199 °C
Cc1cccc(-c2nc(-c3ccc(S(C)(=O)=O)cc3)sc2-c2ccnc(NC3CCCC3)c2)c1 [Example Compound 36-7, N-cyclopentyl-4-[4-(3-methylphenyl)-2-(4-methylsulfonylphenyl)-1,3-thiazol-5-yl]-2-pyridylamine]	154 to 156 °C
Cc1cccc(-c2nc(-c3ccc(S(C)(=O)=O)cc3)sc2-c2ccnc(N3CCOCC3)c2)c1 [Example Compound 36-8, 4-(3-methylphenyl)-2-(4-methylsulfonylphenyl)-5-(2-morpholino-4-pyridyl)-1,3-thiazole]	200 to 202 °C
CCc1nc(-c2cccc(C)c2)c(-c2ccnc(N3CCOCC3)c2)s1 [Example Compound 36-9, 2-ethyl-4-(3-methylphenyl)-5-(2-morpholino-4-pyridyl)-1,3-thiazole]	69 to 71 °C
CCc1nc(-c2cccc(Cl)c2)c(-c2ccnc(NC3CCCCC3)c2)s1 [Example Compound 36-10, 4-[4-(3-chlorophenyl)-2-ethyl-1,3-thiazol-5-yl]-N-cyclohexyl-2-pyridylamine]	106 to 107 °C
CCc1nc(-c2cccc(Cl)c2)c(-c2ccnc(NC3CCCC3)c2)s1 [Example Compound 36-11, 4-[4-(3-chlorophenyl)-2-ethyl-1,3-thiazol-5-yl]-N-cyclopentyl-2-pyridylamine]	110 to 111 °C
Cc1cccc(-c2nc(-c3ccc(S(C)(=O)=O)cc3)sc2-c2ccnc(N(C)C3CCCCC3)c2)c1 [Example Compound 37-2, N-cyclohexyl-N-methyl-4-[4-(3-methylphenyl)-2-(4-methylsulfonylphenyl)-1,3-thiazol-5-yl]-2-pyridylamine]	173 to 174 °C
Cc1cccc(-c2nc(-c3ccc(S(C)(=O)=O)cc3)sc2-c2ccnc(NCC3CCCCC3)c2)c1 [Example Compound 37-3, N-cyclohexylmethyl-4-[4-(3-methylphenyl)-2-(4-methylsulfonylphenyl)-1,3-thiazol-5-yl]-2-pyridylamine]	157 to 159 °C
Cc1cccc(-c2nc(-c3ccc(S(C)(=O)=O)cc3)sc2-c2ccnc(N3CCCC3)c2)c1 [Example Compound 37-4, 4-(3-methylphenyl)-2-(4-methylsulfonylphenyl)-5-[2-(1-pyrrolidinyl)-4-pyridyl]-1,3-thiazole]	199 to 201 °C
Cc1cccc(-c2nc(-c3ccc(S(C)(=O)=O)cc3)sc2-c2ccnc(N3CCN(C)CC3)c2)c1 [Example Compound 37-5, 4-(3-methylphenyl)-5-[2-(4-methyl-1-piperazinyl)-4-pyridyl]-2-(4-methylsulfonylphenyl)-1,3-thiazole]	153 to 154 °C
CC(=O)Nc1nc(-c2cc(C)cc(C)c2)c(-c2ccnc(C)c2)s1 [Example Compound 40-1, N-[4-(3,5-dimethylphenyl)-5-(2-methyl-4-pyridyl)-1,3-thiazol-2-yl]acetamide]	236 to 237 °C
CC(=O)Nc1nc(-c2cccc(C)c2)c(-c2cc(C)nc(C)c2)s1 [Example Compound 40-2, N-[5-(2,6-dimethyl-4-pyridyl)-4-(3-methylphenyl)-1,3-thiazol-2-yl]acetamide]	185 to 187 °C
CC(=O)Nc1nc(-c2cc(C)cc(C)c2)c(-c2cc(C)nc(C)c2)s1 [Example Compound 40-3, N-[4-(3,5-dimethylphenyl)-5-(2,6-dimethyl-4-pyridyl)-1,3-thiazol-2-yl]acetamide]	266 to 267 °C
Cc1cccc(-c2nc(NC(=O)c3cccnc3)sc2-c2ccnc(C)c2)c1 [Example Compound 41, N-[4-(3-methylphenyl)-5-(2-methyl-4-pyridyl)-1,3-thiazol-2-yl]nicotinamide]	175 to 178 °C
Cc1cc(C)cc(-c2nc(NC(=O)c3cccnc3)sc2-c2ccnc(C)c2)c1 [Example Compound 42-1, N-[4-(3,5-dimethylphenyl)-5-(2-methyl-4-pyridyl)-1,3-thiazol-2-yl]nicotinamide]	203 to 206 °C

The next lines start with the values.

melting point	SMILES
267 to 268 °C	Cc1cc(C)cc(-c2nc(NC(=O)c3cccnc3)sc2-c2cc(C)nc(C)c2)c1 [Example Compound 42-2, N-[4-(3,5-dimethylphenyl)-5-(2,6-dimethyl-4-pyridyl)-1,3-thiazol-2-yl]nicotinamide]
201 to 203 °C	Cc1cccc(-c2nc(NC(=O)c3cccnc3)sc2-c2ccnc(NC3CCCCC3)c2)c1 [Example Compound 42-3, N-[5-(2-cyclohexylamino-4-pyridyl)-4-(3-methylphenyl)-1,3-thiazol-2-yl]nicotinamide]
215 to 216 °C	Cc1cccc(-c2nc(NC(=O)c3cccnc3)sc2-c2ccnc(NC3CCCC3)c2)c1 [Example Compound 42-4, N-[5-(2-cyclopentylamino-4-pyridyl)-4-(3-methylphenyl)-1,3-thiazol-2-yl]nicotinamide]
136 to 138 °C	O=C(Nc1nc(-c2ccc(F)cc2)c(-c2ccnc(NC3CCCCC3)c2)s1)c1cccnc1 [Example Compound 42-5, N-[5-(2-cyclohexylamino-4-pyridyl)-4-(4-fluorophenyl)-1,3-thiazol-2-yl]nicotinamide]
261 to 262 °C	Cc1cc(-c2sc(NC(=O)c3cccnc3)nc2-c2ccc(F)cc2)ccn1 [Example Compound 42-7, N-[4-(4-fluorophenyl)-5-(2-methyl-4-pyridyl)-1,3-thiazol-2-yl]nicotinamide]
147 to 148 °C	Cc1cccc(-c2nc(N(C)C(=O)c3cccnc3)sc2-c2ccnc(NC3CCCCC3)c2)c1 [Example Compound 42-8, N-[5-(2-cyclohexylamino-4-pyridyl)-4-(3-methylphenyl)-1,3-thiazol-2-yl]-N-methylnicotinamide]
148 °C	Cc1cccc(-c2nc(N(C)C(=O)c3cccnc3)sc2-c2ccnc(NC3CCCC3)c2)c1 [Example Compound 42-9, N-[5-(2-cyclopentylamino-4-pyridyl)-4-(3-methylphenyl)-1,3-thiazol-2-yl]N-methylnicotinamide]
228 to 230 °C	Cc1cccc(-c2nc(NC(=O)c3ccc(Cl)nc3)sc2-c2ccnc(C)c2)c1 [Example Compound 43, 6-chloro-N-[4-(3-methylphenyl)-5-(2-methyl-4-pyridyl)-1,3-thiazol-2-yl]nicotinamide]
255 to 256 °C	Cc1cccc(-c2nc(NC(=O)c3ccc(Cl)nc3)sc2-c2ccnc(NC3CCCCC3)c2)c1 [Example Compound 44-1, 6-chloro-N-[5-(2-cyclohexylamino-4-pyridyl)-4-(3-methylphenyl)-1,3-thiazol-2-yl]nicotinamide]
211 to 212 °C	Cc1cccc(-c2nc(NC(=O)c3ccc(Cl)nc3)sc2-c2ccnc(NC3CCCC3)c2)c1 [Example Compound 44-2, 6-chloro-N-[5-(2-cyclopentylamino-4-pyridyl)-4-(3-methylphenyl)-1,3-thiazol-2-yl]nicotinamide]
271 to 273 °C	Cc1cc(C)cc(-c2nc(NC(=O)c3ccc(Cl)nc3)sc2-c2ccnc(C)c2)c1 [Example Compound 44-3, 6-chloro-N-[4-(3,5-dimethylphenyl)-5-(2-methyl-4-pyridyl)-1,3-thiazol-2-yl]nicotinamide]
171 to 172 °C	Cc1cccc(-c2nc(N(C)C(=O)c3ccc(Cl)nc3)sc2-c2ccnc(NC3CCCCC3)c2)c1 [Example Compound 44-4, 6-chloro-N-[5-(2-cyclohexylamino-4-pyridyl)-4-(3-methylphenyl)-1,3-thiazol-2-yl]-N-methylnicotinamide]
233 to 234 °C	Cc1cccc(-c2nc(NC(=O)c3ccc(C)nc3)sc2-c2ccnc(C)c2)c1 [Example Compound 45, 6-methyl-N-[4-(3-methylphenyl)-5-(2-methyl-4-pyridyl)-1,3-thiazol-2-yl]nicotinamide]
242 to 243 °C	Cc1cccc(-c2nc(NC(=O)c3ccc(C)nc3)sc2-c2ccnc(NC3CCCCC3)c2)c1 [Example Compound 46-1, N-[5-(2-cyclohexylamino-4-pyridyl)-4-(3-methylphenyl)-1,3-thiazol-2-yl]-6-methylnicotinamide]
213 to 214 °C	Cc1cccc(-c2nc(NC(=O)c3ccc(C)nc3)sc2-c2ccnc(NC3CCCC3)c2)c1 [Example Compound 46-2, N-[5-(2-cyclopentylamino-4-pyridyl)-4-(3-methylphenyl)-1,3-thiazol-2-yl]-6-methylnicotinamide]
